Values of other authors in patent US20170027865A1, “Dry Pharmaceutical Compositions for Topical Delivery of Oral Medications, Nasal Delivery and to Treat Ear Disorders” (CMPD LICENSING LLC, priority 2013, published 2017).

Assays:
[1] = system: Fusarium species
[2] = system: Candida species
[3] = system: Scedosporium apiospermum
[4] = system: Aspergillus fumigatus
[5] = system: Aspergillus terreus
[6] = system: Aspergillus niger
[7] = system: Aspergillus flavus
[8] = system: Histoplasma capsulatum
[9] = system: Cryptococcus neoformans
[10] = system: Leishmania infantum
[11] = system: Blastomyces dermatitidis
[12] = system: Coccidioides immitis
[13] = system: Paracoccidioides brasiliensis
[14] = system: Leishmania donovani
[15] = system: Pseudomonas fluorescens; settings: Gram: neg
[16] = system: Diphtheroids; settings: Gram: pos
[17] = system: Streptococcus pneumoniae; settings: Gram: pos
[18] = system: Klebsiella pneumoniae; settings: Gram: neg
[19] = system: Methicillin Resistant Staph aureus (MRSA); settings: Gram: pos
[20] = system: Enterococcus faecalis; settings: Gram: pos
[21] = system: Chlamydia pneumoniae; settings: Gram: n/a
[22] = system: Chlamydia trachomatis; settings: Gram: n/a
[23] = system: Chlamydia psittaci
[24] = system: Campylobacter jejuni; settings: Gram: neg
[25] = system: Neisseria meningitidis; settings: Gram: neg
[26] = system: Salmonella typhi; settings: Gram: neg
[27] = system: Citrobacter freundii; settings: Gram: neg
[28] = system: Enterobacter aerogenes; settings: Gram: neg
[29] = system: Haemophilus ducreyi; settings: Gram: neg
[30] = system: Streptococcus pyogenes; settings: Gram: pos
[31] = system: Acinetobacter lwoffii; settings: Gram: neg
[32] = system: Clostridium difficile; settings: Gram: anaer
[33] = system: Shigella flexneri; settings: Gram: neg
[34] = system: Shigella dysenteriae; settings: Gram: neg
[35] = system: Neisseria gonorrhoeae; settings: Gram: neg
[36] = system: Staphylococcus epidermidis; settings: Gram: pos
[37] = system: Providencia rettgeri; settings: Gram: neg
[38] = system: Serratia marcescens; settings: Gram: neg
[39] = system: Bordetella pertussis; settings: Gram: neg
[40] = system: Clostridium perfringens
[41] = system: Klebsiella oxytoca; settings: Gram: neg
[42] = system: Morganella morganii; settings: Gram: neg
[43] = system: Acinetobacter baumannii; settings: Gram: neg
[44] = system: Legionella pneumophila
[45] = system: Staphylococcus aureus (MSSA); settings: Gram: pos
[46] = system: Rickettsiae
[47] = system: Peptostreptococcus; settings: Gram: pos
[48] = system: Klebsiella (Calymmatobacterium) granulomatis; settings: Gram: neg
[49] = system: Acinetobacter calcoaceticus; settings: Gram: neg
[50] = system: Haemophilus parainfluenzae; settings: Gram: neg
[51] = system: Providencia stuartii; settings: Gram: neg
[52] = system: Bacteroides fragilis; settings: Gram: anaer
[53] = system: Francisella tularensis
[54] = system: Escherichia coli; settings: Gram: neg
[55] = system: Corynebacterium jeikeium; settings: Gram: pos
[56] = system: Proteus vulgaris; settings: Gram: neg
[57] = system: Enterobacter sakazakii; settings: Gram: neg
[58] = system: Proteus mirabilis; settings: Gram: neg
[59] = system: Yersinia pestis
[60] = system: Enterobacter cloacae; settings: Gram: neg
[61] = system: Shigella sonnei; settings: Gram: neg
[62] = system: Streptococcus agalactiae; settings: Gram: pos
[63] = system: Brucella species
[64] = system: Bartonella bacilliformis; settings: Gram: neg
[65] = system: Corynebacterium urealyticum; settings: Gram: pos
[66] = system: Haemophilus influenzae; settings: Gram: neg
[67] = system: Viridans group streptococci; settings: Gram: pos
[68] = system: Moraxella catarrhalis; settings: Gram: neg
[69] = system: Vibrio cholerae; settings: Gram: neg
[70] = system: Pseudomonas aeruginosa; settings: Gram: neg
[71] = system: Shigella boydii; settings: Gram: neg
[72] = system: Mycoplasma pneumoniae; settings: Gram: n/a
[73] = system: Citrobacter diversus; settings: Gram: neg

For C[C@@H](c1ncncc1F)[C@](O)(Cn1cncn1)c1ccc(F)cc1F [Voriconazole, voriconazole], which Expected coverage [1] is on record?
The Expected coverage was “yes”.

What about the Expected coverage [2] of the same molecule?
The Expected coverage was “yes”.

What about the Expected coverage [3] of the same molecule?
Its Expected coverage is “yes”.

And the Expected coverage [4]?
Its Expected coverage is “yes”.

And the Expected coverage [5]?
The Expected coverage was “yes”.

And the Expected coverage [6]?
The Expected coverage was “yes”.

And the Expected coverage [7]?
Its Expected coverage is “yes”.

Which Expected coverage [8] does the source give for C[C@@H]1[C@H](O)[C@@H](C)/C=C/C=C/C=C/C=C/C=C/C=C/C=C/[C@H](O[C@@H]2O[C@H](C)[C@@H](O)[C@H](N)[C@@H]2O)C[C@@H]2O[C@](O)(C[C@@H](O)C[C@@H](O)[C@H](O)CC[C@@H](O)C[C@@H](O)CC(=O)O[C@H]1C)C[C@H](O)[C@H]2C(=O)O [Amphotericin, amphotericin B] here?
Its Expected coverage is “yes”.

And the Expected coverage [2]?
The Expected coverage was “yes”.

What about the Expected coverage [4] of the same molecule?
The Expected coverage was “yes”.

What about the Expected coverage [5] of the same molecule?
Its Expected coverage is “yes”.

What about the Expected coverage [9] of the same molecule?
Its Expected coverage is “yes”.

And the Expected coverage [10]?
Its Expected coverage is “yes”.

What about the Expected coverage [11] of the same molecule?
Its Expected coverage is “yes”.

What about the Expected coverage [6] of the same molecule?
Its Expected coverage is “yes”.

What about the Expected coverage [12] of the same molecule?
The Expected coverage was “yes”.

What about the Expected coverage [13] of the same molecule?
Its Expected coverage is “yes”.

What about the Expected coverage [14] of the same molecule?
The Expected coverage was “yes”.

What about the Expected coverage [7] of the same molecule?
Its Expected coverage is “yes”.

For CN[C@H](CC(C)C)C(=O)N[C@H]1C(=O)N[C@@H](CC(N)=O)C(=O)N[C@H]2C(=O)N[C@H]3C(=O)N[C@H](C(=O)N[C@H](C(=O)O)c4cc(O)cc(O)c4-c4cc3ccc4O)[C@H](O)c3ccc(c(Cl)c3)Oc3cc2cc(c3O[C@@H]2O[C@H](CO)[C@@H](O)[C@H](O)[C@H]2O[C@H]2C[C@](C)(N)[C@H](O)[C@H](C)O2)Oc2ccc(cc2Cl)[C@H]1O [Vancomycin, vancomycin], which Expected coverage [15] is on record?
The Expected coverage was “no”.

What about the Expected coverage [16] of the same molecule?
Its Expected coverage is “yes”.

And the Expected coverage [17]?
Its Expected coverage is “yes”.

And the Expected coverage [18]?
Its Expected coverage is “no”.

And the Expected coverage [19]?
Its Expected coverage is “yes”.

What about the Expected coverage [20] of the same molecule?
The Expected coverage was “yes”.

What about the Expected coverage [21] of the same molecule?
The Expected coverage was “no”.

And the Expected coverage [22]?
Its Expected coverage is “no”.

What about the Expected coverage [23] of the same molecule?
Its Expected coverage is “no”.

What about the Expected coverage [24] of the same molecule?
The Expected coverage was “no”.

What about the Expected coverage [25] of the same molecule?
The Expected coverage was “no”.

What about the Expected coverage [26] of the same molecule?
Its Expected coverage is “no”.

What about the Expected coverage [27] of the same molecule?
The Expected coverage was “no”.

What about the Expected coverage [28] of the same molecule?
The Expected coverage was “no”.

What about the Expected coverage [29] of the same molecule?
The Expected coverage was “no”.

And the Expected coverage [30]?
The Expected coverage was “yes”.

What about the Expected coverage [31] of the same molecule?
Its Expected coverage is “no”.

And the Expected coverage [32]?
Its Expected coverage is “yes”.

And the Expected coverage [33]?
The Expected coverage was “no”.

What about the Expected coverage [34] of the same molecule?
Its Expected coverage is “no”.

What about the Expected coverage [35] of the same molecule?
Its Expected coverage is “no”.

What about the Expected coverage [36] of the same molecule?
The Expected coverage was “yes”.

And the Expected coverage [37]?
Its Expected coverage is “no”.

And the Expected coverage [38]?
The Expected coverage was “no”.

And the Expected coverage [39]?
Its Expected coverage is “no”.

And the Expected coverage [40]?
Its Expected coverage is “no”.

What about the Expected coverage [41] of the same molecule?
Its Expected coverage is “no”.

What about the Expected coverage [42] of the same molecule?
Its Expected coverage is “no”.

What about the Expected coverage [43] of the same molecule?
The Expected coverage was “no”.

What about the Expected coverage [44] of the same molecule?
Its Expected coverage is “no”.

What about the Expected coverage [45] of the same molecule?
The Expected coverage was “yes”.

What about the Expected coverage [46] of the same molecule?
Its Expected coverage is “no”.

What about the Expected coverage [47] of the same molecule?
Its Expected coverage is “yes”.

What about the Expected coverage [48] of the same molecule?
Its Expected coverage is “no”.

What about the Expected coverage [49] of the same molecule?
The Expected coverage was “no”.

And the Expected coverage [50]?
The Expected coverage was “no”.

And the Expected coverage [51]?
The Expected coverage was “no”.

And the Expected coverage [52]?
The Expected coverage was “no”.

And the Expected coverage [53]?
The Expected coverage was “no”.

And the Expected coverage [54]?
Its Expected coverage is “no”.

And the Expected coverage [55]?
The Expected coverage was “yes”.

What about the Expected coverage [56] of the same molecule?
The Expected coverage was “no”.

What about the Expected coverage [57] of the same molecule?
The Expected coverage was “no”.

What about the Expected coverage [58] of the same molecule?
The Expected coverage was “no”.

And the Expected coverage [59]?
Its Expected coverage is “no”.

What about the Expected coverage [60] of the same molecule?
The Expected coverage was “no”.

And the Expected coverage [61]?
Its Expected coverage is “no”.

What about the Expected coverage [62] of the same molecule?
The Expected coverage was “yes”.

What about the Expected coverage [63] of the same molecule?
Its Expected coverage is “no”.

What about the Expected coverage [64] of the same molecule?
Its Expected coverage is “no”.

What about the Expected coverage [65] of the same molecule?
Its Expected coverage is “yes”.

What about the Expected coverage [66] of the same molecule?
Its Expected coverage is “no”.

And the Expected coverage [67]?
The Expected coverage was “yes”.

What about the Expected coverage [68] of the same molecule?
Its Expected coverage is “no”.

And the Expected coverage [69]?
Its Expected coverage is “no”.

What about the Expected coverage [70] of the same molecule?
The Expected coverage was “no”.

And the Expected coverage [71]?
Its Expected coverage is “no”.

And the Expected coverage [72]?
The Expected coverage was “no”.

What about the Expected coverage [73] of the same molecule?
The Expected coverage was “no”.

Which Expected coverage [8] does the source give for OC(Cn1cncn1)(Cn1cncn1)c1ccc(F)cc1F [Fluconazole, fluconazole] here?
The Expected coverage was “yes”.

And the Expected coverage [2]?
The Expected coverage was “yes”.

What about the Expected coverage [4] of the same molecule?
Its Expected coverage is “yes”.

And the Expected coverage [9]?
The Expected coverage was “yes”.

What about the Expected coverage [11] of the same molecule?
The Expected coverage was “yes”.

What about the Expected coverage [12] of the same molecule?
The Expected coverage was “yes”.

And the Expected coverage [7]?
Its Expected coverage is “yes”.
